From patent US5482942A, “(3,4-dioxocyclobuten-1-yl)chromene, indene, and dihydronaphthalenone derivatives as smooth muscle relaxants” (American Home Products Corporation, priority 1994, dated 1996)

Tests used:
[1] = tested on: Isolated Rat Aortic Tissue; assay: Inhibition of contractions in isolated rat aortic rings (aortic smooth muscle relaxing activity); design: species or system Sprague-Dawley rats; conditions: isolated rat thoracic aorta rings, 25 mM KCl contracture, cumulative addition; read-out: IC50 or (% Inhibition of Aorta Contraction at 30 μM)
Method: Aortic smooth muscle relaxing activity of the compounds of this invention was established in accordance with standard pharmaceutically accepted test procedures in representative compounds as follows:
Sprague-Dawley rats (150-200 g) are rendered unconscious by CO2 asphyxiation and then euthanized by cervical dislocation. The thoracic aorta is removed into warm (37° C.) Krebs-Henseleit solution. The aorta is cleaned of fat and loose adventitia and cut into rings 3-4 mm in width. The rings are subsequently suspended between two stainless steel wire tissue holders in a 10 ml tissue bath. One wire tissue holder is attached to fixed hook while the other is attached to an isometric force transducer. Resting tension is set at 1.0 g. The tissues are allowed to recover for a period of 60 mins prior to beginning the experiment. The tissues are challenged with 25 mM KCl to elicit a contracture. The tissue are then washed repeatedly with fresh Krebs-Henseleit solution over a period of 30 mins and allowed to recover to baseline tension. 25 mM KCl is then introduced into the tissue bath to evoke a contracture that is allowed to stabilize for not less than 45 mins. Increasing concentrations of test compound or vehicle are then added to the tissue bath in a cumulative fashion.
Isometric force developed by the aortic rings is measured using force transducer and recorded on a polygraph. […]

Isolated Rat Bladder = assay: Inhibition of contractions in isolated rat bladder strips (bladder smooth muscle relaxing activity); design: species or system Sprague-Dawley rats; conditions: 0.5 h, 15 mM KCl-enhanced contractions, 30 min challenge, read-out: IC50 or (% Inhibition of Bladder Contraction at 30 μM)
Method: Bladder smooth muscle relaxing activity of the compounds of this invention was established in accordance with standard pharmaceutically accepted test procedures in representative compounds as follows:
Sprague-Dawley rats (150-200 g) are rendered unconscious by CO2 asphyxiation and then euthanized by cervical dislocation. The bladder is removed into warm (37° C.) physiological salt solution (PSS) of the following composition (mM): NaCl, 118.4; KCl, 4.7; CaCl2, 2.5; […]; NaHCO3, 24.9; KH2 PO4, 1.2; glucose, 11.1; EDTA, 0.023; gassed with […]; pH 7.4. The bladder is opened and then cut into strips 1-2 mm in width and 7-10 mm in length. The strips are subsequently suspended in a 10 ml tissue bath under an initial resting tension of 1.5 g. The strips are held in place by two surgical clips one of which is attached to fixed hook while the other is attached to an isometric force transducer. […] The carbachol is then washed out and the tissue allowed to relax to its resting level of activity. Following one further 30 min period of recovery an additional 15 mM KCl are introduced into the tissue bath. […] Contractile activity is measured for each compound or vehicle concentration during the last min of a 30 min challenge. […]

SMILES | IC50 [1] [nM] | IC50 (Isolated Rat Bladder) [nM]
CC1(C)C=C(c2c(N)c(=O)c2=O)c2cc(C#N)ccc2O1 [Example 2, 4-(2-Amino-3,4-dioxo-cyclobut-1-enyl)-2,2-dimethyl-2H-chromene-6-carbonitrile] | 150 ± 20 | 390 ± 40
CNc1c(C2=CC(C)(C)Oc3ccc(C#N)cc32)c(=O)c1=O [Example 3, 2,2-Dimethyl-4-(2-methylamino-3,4-dioxo-cyclobut-1-enyl)-2H-chromene-6-carbonitrile] | 560 ± 40 | 4100 ± 1800
